Data taken from US9199200B2, “Submerged membrane bioreactor system and biological methods for removing bisphenol compounds from municipal wastewater” (Centre de Recherche Industrielle de Québec (CRIQ), priority 2010, dated 2015).

What was measured:
[1] = Equilibrium adsorption isotherms of BPA on inactivated sludge (Freundlich, Langmuir); type: physicochemical
Method: To elucidate the plausible mechanisms of the biological removal of the bisphenol compounds, the removal of BPA was tested (adsorption on the biomass versus biological oxidation), and additional experiments are carried out in Erlenmeyer shake flasks containing either activated sludge or inactivated sludge in the presence of BPA. The sludge used for the tests is withdrawn from the SMBR unit. Prior to BPA addition in activated sludge sample, sludge is initially centrifuged at 8000 rpm at 4° C. for 10 min and softly washed. The inactivated sludge is prepared by subjecting sludge samples to a sterilization by adding 1.0 mL HgSO4 (20 g/L) to 200 mL of sludge. Then, the sterilized and centrifuged sample sludge is placed in conical flasks and shaken at 150 rpm at 22±2° C. for 2 h, and then centrifuged at 8000 rpm at 4° C. for 10 min. Different concentrations of BPA (0.45 to 18.2 mg/L) are added in the same mass of sludge (3.0 g of sludge diluted to 200 mL with milli-Q water). The concentration of total suspended solid (sludge) in the flask was 15 g TSS L^−1, which is similar to that observed in the SMBR system of the present invention. Three types of experiments are successively carried out. The first set tests consists in evaluating the adsorption capacity of BPA on sludge. For that, two Erlenmeyer shake flasks containing 200 mL of activated sludge (15 g TSS L^−1) are respectively contaminated by 5 and 10 mg/L of BPA. The flasks are shaken at 150 rpm at 22±2° C., pH=7±0.5 for 24 h and samples are taken in regular time intervals, and the amount of BPA adsorbed is determined by measuring the residual BPA concentrations in solution The same assay is carried out using inactivated sludge. Subsequently, isotherm adsorption experiments are carried out using different concentrations of BPA (0.45-18.2 mg/L) spiked in a same mass of sludge (200 ml of inactivated sludge at 15 g TSS/L). The flasks are shaken at 150 rpm for 2 h and samples are taken for analysis.
By analogy, the amount of BPA adsorbed on sludge at equilibrium (qe, mg/g) and the sorption efficiency is determined according to equations (1) described above. The specific adsorption coefficient (KD) can also be calculated. The coefficient KD is the ratio between the amount of BPA adsorbed on sludge at equilibrium (qe) and the residual (Ce) concentrations, according to the following equation (Eq. (3)): […]
Thermodynamic equilibrium constants are determined in order to evaluate adsorption affinity of BPA on sludge. The amount of BPA adsorbed on sludge is calculated using the following equation (Eq. (10)): […]
Adsorption isotherms allow presenting the variation of sorption with respect to the concentration of sorbate in the bulk solution at constant temperature. Equilibrium adsorptions of BPA on the biomass using Freundlich and Langmuir models are studied. These isotherms describe BPA uptake per unit weight of sorbent (qe) in function of the equilibrium sorbate concentration in the bulk solution (Ce). The Freundlich isotherm is described by the following equation (Eq. (11)) and is illustrated in FIG. 12: […]
The Langmuir isotherm is described by the following equation (Eq. (12)) and is represented in FIG. 13: […]
In fact, Langmuir adsorption isotherm is valid for monolayer sorption on a surface containing a limited number of sites, predicting a homogenous distribution of sorption energy. The reorganization of Eq. (12) leads to the following equation (Eq. (13)) as the linearised form of the Langmuir isotherm: […]
From Langmuir isotherm, it is possible to define a dimensionless constant (RL) taking into account the separation factor of equilibrium parameter. This dimensionless constant allows predicting if the adsorption system is favorable or not, as explained in Shokoohi et al. as cited above and by Gao et al. Journal of Fluorine Chemistry 130 (2009) 1035-1041. RL can be evaluated using the following equation (Eq. (14)): […]

[2] = Thermodynamic parameters of BPA adsorption on inactivated sludge; type: physicochemical
Method: The third set of assays consisted of evaluating the thermodynamic parameters such as Gibbs free energy)(ΔG^0), enthalpy)(ΔH^0 and entropy)(ΔS^0 changes, which parameters allowed to determine whether BPA sorption on sludge was due to physisorption or chemisorption phenomenon or the combination of both phenomena. For that, Erlenmeyer flasks containing 200 mL of inactivated sludge at 15 g TSS L^−1 and 5 mgL^−1 of BPA are used. Mixing is achieved at 150 rpm and different temperatures (22±2, 30±2 and 40±2° C.) are respectively imposed for 2 h of experiment time.
In order to calculate whether the adsorption process is spontaneous or not, thermodynamics parameters including standard Gibbs free energy of adsorption (ΔadG^0), standard enthalpy of adsorption (ΔadH^0) and standard entropy change of) adsorption (ΔadS^0) have been considered. ΔadG^0 is calculated using the following equation (Eq. (22)): ΔadG^0=−RT ln Kd (22)
T is the temperature (K), and KD is the specific adsorption coefficient (equilibrium distribution coefficient). Relation between ΔadG^0, ΔH^0 and ΔadS^0 is expressed by the following equation (Eq. (23)): ΔadG^0=ΔadH^0−TΔadS^0 (23)
wherein ΔadH^0, ΔadS^0 are calculated from the slope and intercept of the plot of ln KD versus 1/T, respectively.
The adsorption tests are conducted at different temperatures ranging from 293 K to 313 K. At each temperature, the corresponding KD at fixed initial concentration of BPA is calculated and the corresponding Gibbs free energy change is deducted according to Eq. (22).

[3] = cited from earlier work
aquatic ecosystems = settings: Oehlmann et al.; cited from earlier work

CC(C)(c1ccc(O)cc1)c1ccc(O)cc1 [BPA, 2,2-Bis(4-hydroxyphenyl)propane]
Freundlich parameter shown as formula MATH:00015 [1]: 0.819 | KL (Langmuir constant) [1]: 0.370 L/g | RL (dimensionless separation factor, Langmuir) [1]: 0.11 | b (Langmuir constant) [1]: 0.444 L/mg | kf (Freundlich isotherm constant) [1]: 0.231 mg^1-1/n g^−1 · L^1/n | n (Freundlich constant, adsorption intensity) [1]: 1.22 | qm, maximum BPA concentration capable of being adsorbed on sludge (Langmuir, KL/b) [1]: 0.833 mg/g | Adsorbed fraction ([1]; C0 0.45 mg/L): 84.4% | Equilibrium liquid phase concentration of BPA (Ce) ([1]; C0 0.45 mg/L): 0.07 mg/L | Adsorbed fraction ([1]; C0 0.91 mg/L): 85.7% | Equilibrium liquid phase concentration of BPA (Ce) ([1]; C0 0.91 mg/L): 0.13 mg/L | Adsorbed fraction ([1]; C0 1.82 mg/L): 78.6% | Equilibrium liquid phase concentration of BPA (Ce) ([1]; C0 1.82 mg/L): 0.39 mg/L | Adsorbed fraction ([1]; C0 4.74 mg/L): 77.0% | Equilibrium liquid phase concentration of BPA (Ce) ([1]; C0 4.74 mg/L): 1.09 mg/L | Adsorbed fraction ([1]; C0 9.47 mg/L): 76.0% | Equilibrium liquid phase concentration of BPA (Ce) ([1]; C0 9.47 mg/L): 2.27 mg/L | Adsorbed fraction ([1]; C0 13.67 mg/L): 74.8% | Equilibrium liquid phase concentration of BPA (Ce) ([1]; C0 13.67 mg/L): 3.45 mg/L | Adsorbed fraction ([1]; C0 18.22 mg/L): 70.5% | Equilibrium liquid phase concentration of BPA (Ce) ([1]; C0 18.22 mg/L): 5.37 mg/L | Adsorption removal of BPA on sludge ([1]; of initial liquid phase concentration, 0.45-18.2 mg/L): 70.5 to 85.7% | ΔadH^0 ([2]; 293-313 K): −82.121 KJmol^−1 | ΔadS^0 ([2]; 293-313 K): −0.257 KJmol^−1K^−1 | ΔadG^0 ([2]; 293 K): -1.72 kcal/mol | ΔadG^0 ([2]; 303 K): -0.7216 kcal/mol | ΔadG^0 ([2]; 313 K): -0.5067 kcal/mol | Equilibrium adsorption time ([3]; Chen et al., submerged membrane bioreactor process): 30 min | Freundlich coefficient log Kf ([3]; Clara et al.): −0.614 | BPA adsorption equilibrium time ([3]; Clara et al., conventional activated sludge reactor): 2 h | Concentration of BPA with adverse effects in aquatic ecosystems (aquatic ecosystems): below 1.0 μg/L
